pIC50: −log10 of the molar value. Entries after “also recorded” stand apart in the source; their conditions may differ.
How the values were obtained:
[1] = tested on: MIA PaCa-2 human pancreatic cancer subcutaneous xenograft; assay: Pharmacodynamic evaluation in human pancreatic cancer subcutaneous xenograft mouse model; type: in vivo, BALB/c nude mice; settings: for Relative tumor inhibition rate TGI: 0.19 mmoL/kg i.p. twice a week for 4 consecutive weeks (gemcitabine 50 mg/kg, others 110 mg/kg)
Procedure: Cell Culture: MIA PaCa-2 cells were cultured in a DMEM culture medium containing 10% fetal bovine serum and 2.5% HS. MIA PaCa-2 cells in an exponential growth phase were collected and resuspended in PBS to a suitable concentration for the subcutaneous tumor inoculation in nude mice.
Animal modeling and Grouping: BALB/c nude mice, female, 6 to 8 weeks old (the predicted weeks of age of the mice when being inoculated with tumor cells), 18 to 22 g, purchased from Shanghai Lingchang Biological Technology Co., LTD. A total of 52 mice (40 plus 30% surplus) were required. After grouping, there were 5 groups in total, each group having 8 mice. All experimental mice were raised in a barrier system and adapted to the environment for at least 7 days in advance. Each mice was subcutaneously inoculated with 3×10^6 MIA PaCa-2 cells on the right back and the cells were resuspended in PBS and matrigel (1:1) (0.1 ml/mice); the tumor growth was observed regularly, and when the tumor volumes reached an average size of 150 to 200 mm^3, the mice were randomly divided into groups according to the size of tumor and body weight of the mice, and the drugs were administered.
Relative tumor inhibition rate TGI(%): TGI %=(1−T/C)×100%. T/C % is the relative tumor growth rate, which is the percentage of the relative tumor volume or tumor weight of the treatment groups with respect to the control group at a certain timepoint. T and C are the relative tumor volume (RTV) or tumor weight (TW), respectively, of the treatment groups and the control group at a particular timepoint.
The calculation formula is as follows: T/C %=TRTV/CRTV×100% (TRTV: the average RTV of a treatment group; CRTV: the average RTV of the vehicle control group; RTV=Vt/V0, V0 is the tumor volume of an animal at the time of grouping, Vt is the tumor volume of an animal after treatment). Or T/C %=TTW/CTW×100% (TTW: the average tumor weight of a treatment group at the end of the experiment; CTW: the average tumor weight of the vehicle control group at the end of the experiment).

MIA PaCa-2 tumor cells = assay: Tumor cell proliferation in vitro, CTG method, MIA PaCa-2; type: cell-based, human; settings: MIA PaCa-2, 72 hours; for pIC50: Homo sapiens
Procedure: (§1) The 50% inhibitory concentrations (IC50) for the cell proliferation of the compound Sp-1, the compound Rp-1 and NUC-1031 in BxPC-3, MIA PaCa-2 and OVCAR-3 tumor cell lines were measured using the CTG method.
(§2) Cells in an exponential growth phase were collected and the viable cells were counted using a Vi-Cell XR cell counter. The cell suspension was adjusted to 3.33×10^4/ml or 5.56×10^4/ml with culture media corresponding to the respective cells. 90 μl of cell suspension was added to each well of a 96-well cell culture plate, and the final cell concentrations of BxPC-3 and MIA PaCa-2 were 3000 cells/well and the final cell concentration of OVCAR-3 was 5000 cells/well. Each test compound was dissolved in DMSO to become 10 mM stock solutions. 3.16× serial dilutions were prepared by the stock solutions and DMSO. Then the dilutions were respectively diluted 100 times with the culture media. Finally, to each well of the respective cell lines was added 10 μl of the corresponding 10-fold solution, triplicate wells were set up for each drug concentration (see the methods for formulating the compounds and the design of sample adding: the plate map for IC50 determination); for the concentration ranges of the test compounds and the reference compounds used for the final tests, please see the methods for formulating the compounds and the design of sample adding on the following pages: the test compounds and the reference compounds were diluted, and the final concentration of DMSO in each well was 0.1%. The cells were placed in an incubator at 37° C. with 5% CO2 to be cultured for 72 hours (BxPC-3, MIA PaCa-2) or 96 hours (OVCAR-3). After 72 or 96 hours of drug treatment, 50 μl (½ culture volume) of CTG solution, which had been melted and equilibrated to room temperature in advance was added to each well according to the operating instruction of CTG; the mixtures were mixed evenly for 2 minutes with a microwell plate shaker, placed at room temperature for 10 minutes, and then an Envision 2104 plate reader was used to measure the values of the […] signals.
(§3) Cell viability was calculated with the formula: Vsample/Vvehicle control×100%, wherein Vsample is the reading of the treatment group and Vvehicle control is the average value of the vehicle control group. Non-linear regression model was used to plot the S-shape dose-survival rate curves and calculate the IC50 values using GraphPad Prism 5.0 software.

BxPC-3 tumor cells = assay: Tumor cell proliferation in vitro, CTG method, BxPC-3; type: cell-based; settings: BxPC-3, 72 hours; for pIC50: Homo sapiens
Procedure: as §1, §2, §3

[2] = tested on: BxPC-3, MIA PaCa-2 and OVCAR-3 tumor cells; assay: Tumor cell proliferation in vitro, summary over the three cell lines; type: cell-based; settings: for pIC50: span over BxPC-3, MIA PaCa-2 and OVCAR-3, read-out: IC50 values (cytotoxic effect)
Procedure: as §1, §2, §3

OVCAR-3 tumor cells = assay: Tumor cell proliferation in vitro, CTG method, OVCAR-3; type: cell-based; settings: OVCAR-3, 96 hours; for pIC50: Homo sapiens
Procedure: as §1, §2, §3

## C[C@H](N[P@@](=O)(OC[C@H]1O[C@@H](n2ccc(N)nc2=O)C(F)(F)[C@@H]1O)Oc1ccccc1)C(=O)OCc1ccccc1 [Compound Rp-1]
[1]
  Relative tumor inhibition rate TGI: 22%
MIA PaCa-2 tumor cells
  pIC50: 9.90
  Max inh.: 69.2%
BxPC-3 tumor cells
  Max inh.: 61.54%
  pIC50: 9.26
[2]
  pIC50: 9.00 to 11.00
OVCAR-3 tumor cells
  pIC50: 9.78
  Max inh.: 54.19%

## C[C@H](N[P@](=O)(OC[C@H]1O[C@@H](n2ccc(N)nc2=O)C(F)(F)[C@@H]1O)Oc1ccccc1)C(=O)OCc1ccccc1 [Compound Sp-1]
[1]
  Relative tumor inhibition rate TGI: 79%
[1]; equimolar dose, i.p., BIW x 4
  in vivo antitumor activity, comparison in words: better in vivo anti-tumor activity than the compound Rp-1; also recorded: better in vivo antitumor activity as compared with gemcitabine and the compound Rp-1
MIA PaCa-2 tumor cells
  pIC50: 10.92
  Max inh.: 71%
BxPC-3 tumor cells
  Max inh.: 66.48%
  pIC50: 10.35
[2]
  pIC50: 9.00 to 11.00
[2]; versus compound Rp-1
  inhibitory effect on the proliferation activity of tumor cells in vitro relative to compound Rp-1: about 10 times
OVCAR-3 tumor cells
  pIC50: 10.89
  Max inh.: 58.22%

## Nc1ccn([C@@H]2O[C@H](CO)[C@@H](O)C2(F)F)c(=O)n1 [Gemcitabine, reference compound]
[1]
  Relative tumor inhibition rate TGI: 55%

## C[C@H](NP(=O)(OC[C@H]1O[C@@H](n2ccc(N)nc2=O)C(F)(F)[C@@H]1O)Oc1ccccc1)C(=O)OCc1ccccc1 (stereo partly drawn) [NUC-1031]
[1]
  Relative tumor inhibition rate TGI: 54%
MIA PaCa-2 tumor cells
  pIC50: 10.20
  Max inh.: 65.03%
BxPC-3 tumor cells
  Max inh.: 65.82%
  pIC50: 9.58
[2]
  pIC50: 9.00 to 11.00
OVCAR-3 tumor cells
  pIC50: 10.02
  Max inh.: 56.3%

Source: US10689413B2, “Composition enriched in single isomer of NUC-1031 and preparation method and use thereof” (BrightGene Bio-Medical Technology Co., Ltd., priority 2015, dated 2020)
